Source: the CheMixHub ionic liquid set

Assay: xn = mol fraction of the nth substance listed

CCOP(=O)([O-])OCC.CC[N+]1(C)CCOCC1 + CCO
viscosity [mPa·s], 100 kPa
Conditions	293.15 K	298.15 K	303.15 K	308.15 K	313.15 K	318.15 K	323.15 K	328.15 K	333.15 K	338.15 K
x1 = 0.0996	4.62	4.1	3.75	3.43	3.13	2.91	2.76	2.58	2.4	2.24
x1 = 0.2018	12.84	11.11	9.79	8.75	7.93	7.21	6.69	6.18	5.76	5.54
x1 = 0.3003	36.7	29.6	24.7	20.8	18.1	15.82	14.33	13.01	11.79	10.78
x1 = 0.4018	97.7	75.1	59	47.6	38.2	31.8	27.3	23.5	21.1	18.7
x1 = 0.4998	257	183	136.7	102.9	78.9	61.3	49.2	40.1	33.3	29
x1 = 0.6009	625	419	291	209	155	116.8	90	68.9	54.9	44.7
x1 = 0.7005	1447	938	631	424	298	213	158	120.4	91.7	72
x1 = 0.7996	3386	2221	1448	895	582	409	282	205	155	114.1
x1 = 0.901	6136	3670	2214	1372	909	604	418	297	215	160
x1 = 1	12100	6680	3786	2325	1466	942	634	443	312	226

CCCC[n+]1ccn(C)c1.O=S(=O)([O-])C(F)(F)F + OCCO
100 kPa
Conditions	viscosity [mPa·s]
298.15 K, x1 = 0.0926	15.47
298.15 K, x1 = 0.6922	33.7
303.15 K, x1 = 0.0926	12.53
303.15 K, x1 = 0.4999	21.87
303.15 K, x1 = 0.6922	27.7
308.15 K, x1 = 0.2985	13.86
308.15 K, x1 = 0.4999	18.33
308.15 K, x1 = 0.6922	23.66
308.15 K, x1 = 0.7966	29
313.15 K, x1 = 0.2985	11.67
313.15 K, x1 = 0.4999	15.58
313.15 K, x1 = 0.6922	20.18
318.15 K, x1 = 0.0926	7.45
318.15 K, x1 = 0.4999	13.4
323.15 K, x1 = 0.1936	6.92
323.15 K, x1 = 0.3912	9.9
323.15 K, x1 = 0.7966	18.19

CCCCCCCCn1cc[n+](C)c1.O=[N+]([O-])[O-] + CCCCO
101 kPa
Conditions	viscosity [mPa·s]
283.15 K, x2 = 0.168	770
293.15 K, x2 = 0.358	137
293.15 K, x2 = 0.57	38.5
293.15 K, x2 = 0.676	20.63
293.15 K, x2 = 0.848	7.8
298.15 K, x2 = 0.458	59.3
298.15 K, x2 = 0.57	31.8
298.15 K, x2 = 0.848	6.79
303.15 K, x2 = 0.458	47.9
303.15 K, x2 = 0.676	14.91
308.15 K, x2 = 0.358	64.5
308.15 K, x2 = 0.676	12.81
313.15 K, x2 = 0.168	123
313.15 K, x2 = 0.358	52.2
318.15 K, x2 = 0.358	42.8
323.15 K, x2 = 0.458	23.19
323.15 K, x2 = 0.57	14.15
323.15 K, x2 = 0.676	8.67
323.15 K, x2 = 0.848	3.61
328.15 K, x2 = 0.458	17.18

CCCC[n+]1ccn(C)c1.COP(=O)([O-])OC + CCC(=O)O.CCC(=O)[O-].CC[NH+](CC)CCO
101 kPa, x2 = 0
Conditions	viscosity [mPa·s]
283.15 K	2142
328.15 K	100.9
343.15 K	52.35
373.15 K	19.25

CCCC[n+]1ccn(C)c1.COP(=O)([O-])OC + CCCC[n+]1ccn(C)c1.O=S(=O)([N-]S(=O)(=O)C(F)(F)F)C(F)(F)F
Conditions	viscosity [mPa·s]
288.15 K, 100 kPa, x2 = 0	1455

O=C1CCCO1 + CCC[N+]1(C)CCCC1.O=S(=O)([N-]S(=O)(=O)C(F)(F)F)C(F)(F)F
101 kPa, x2 = 0
Conditions	viscosity [mPa·s]
288.15 K	2.146
318.15 K	1.398
348.15 K	0.99

CCOP(=O)([O-])OCC.CC[n+]1ccn(C)c1 + CCO
100 kPa
Conditions	viscosity [mPa·s]
293.15 K, x1 = 0.7003	178
293.15 K, x1 = 0.8985	379
293.15 K, x1 = 1	566
298.15 K, x1 = 0.4007	29.8
298.15 K, x1 = 0.7003	133.2
303.15 K, x1 = 0.4007	24.8
303.15 K, x1 = 0.8	139.2
303.15 K, x1 = 0.8985	197
308.15 K, x1 = 0.7003	79.6
313.15 K, x1 = 1	155
318.15 K, x1 = 0.8985	86.8
323.15 K, x1 = 0.7003	41.1
328.15 K, x1 = 0.1002	2.16
328.15 K, x1 = 0.1992	4.29
328.15 K, x1 = 0.5993	24.4
333.15 K, x1 = 0.4007	10.87
338.15 K, x1 = 0.7003	23.7

O=C[C@H](O)[C@@H](O)[C@H](O)[C@H](O)CO + Cn1cc[n+](CCC[n+]2ccn(C)c2)c1.[Br-].[Br-] + O
101 kPa, x2 = 0, x1 = 0.001799
Conditions	viscosity [mPa·s]
293.15 K	1.043
298.15 K	0.927
303.15 K	0.83
308.15 K	0.754
313.15 K	0.683

[Cl-].[Li+] + CCCCCCCCn1cc[n+](C)c1.N#C[S-] + CN1CCCC1=O
298.15 K, 101 kPa
Conditions	viscosity [mPa·s]
x2 = 0, x1 = 0.03756	2.607
x2 = 0, x1 = 0.07175	3.558
x2 = 0, x1 = 0.1044	4.958

O=C(O)CC(=O)O + CC[n+]1ccn(C)c1.[Cl-]
Conditions	viscosity [mPa·s]
303.15 K, 101.33 kPa, x2 = 0.667	138.9

CCCC[n+]1ccn(C)c1.O=S(=O)([O-])C(F)(F)F + c1ccccc1
100 kPa
Conditions	viscosity [mPa·s]
298.15 K, x2 = 0	88
298.15 K, x2 = 0.122	64.3
298.15 K, x2 = 0.573	12.62
308.15 K, x2 = 0.122	42.2
308.15 K, x2 = 0.304	25.4
318.15 K, x2 = 0.467	10.64
318.15 K, x2 = 0.573	7.22
328.15 K, x2 = 0.304	13.62
328.15 K, x2 = 0.467	8.2

FC(F)C(F)(F)OCC(F)(F)C(F)(F)C(F)(F)C(F)F + CCCC[N+]1(C)CCCC1.FC(F)(F)C(F)(F)[P-](F)(F)(F)(C(F)(F)C(F)(F)F)C(F)(F)C(F)(F)F
101 kPa
Conditions	electrical conductivity [S/m]	viscosity [mPa·s]
298.1 K, x2 = 0	–	2.5
298.1 K, x2 = 0.12	0.18	–
298.1 K, x2 = 0.191	–	7.43
298.1 K, x2 = 0.194	0.257	–
298.1 K, x2 = 0.272	0.28	–
298.1 K, x2 = 0.363	0.306	–
298.1 K, x2 = 0.454	0.291	–
298.1 K, x2 = 0.456	–	25.4
298.1 K, x2 = 0.564	0.241	–
298.1 K, x2 = 0.694	0.182	65.6
298.1 K, x2 = 0.847	–	117.9
298.1 K, x2 = 0.853	0.161	–
303 K, x2 = 0.12	0.199	–
303 K, x2 = 0.123	–	4.63
303 K, x2 = 0.194	0.29	–
303 K, x2 = 0.269	0.32	–
303 K, x2 = 0.359	0.35	–
303 K, x2 = 0.361	–	14.13
303 K, x2 = 0.457	0.335	–
303 K, x2 = 0.567	0.288	32.7
303 K, x2 = 0.694	0.23	–
303 K, x2 = 0.847	–	91.9
303 K, x2 = 0.85	0.198	–
308.1 K, x2 = 0	–	2.12
308.1 K, x2 = 0.123	0.217	–
308.1 K, x2 = 0.191	0.32	–
308.1 K, x2 = 0.272	0.36	–
308.1 K, x2 = 0.273	–	8.09
308.1 K, x2 = 0.366	0.401	–
308.1 K, x2 = 0.456	–	17.2
308.1 K, x2 = 0.463	0.39	–
308.1 K, x2 = 0.564	0.343	–
308.1 K, x2 = 0.691	0.27	–
308.1 K, x2 = 0.847	0.234	71.6
313 K, x2 = 0.058	–	2.88
313 K, x2 = 0.123	0.239	–
313 K, x2 = 0.197	0.356	–
313 K, x2 = 0.272	0.412	–
313 K, x2 = 0.359	0.449	–
313 K, x2 = 0.361	–	11.01
313 K, x2 = 0.46	0.442	–
313 K, x2 = 0.57	0.387	–
313 K, x2 = 0.691	0.322	–
313 K, x2 = 0.694	–	33.7
313 K, x2 = 0.847	–	60.6
313 K, x2 = 0.85	0.289	–
318.1 K, x2 = 0	–	1.65
318.1 K, x2 = 0.12	–	3.41
318.1 K, x2 = 0.123	0.261	–
318.1 K, x2 = 0.194	0.389	–
318.1 K, x2 = 0.271	0.452	–
318.1 K, x2 = 0.362	0.5	–
318.1 K, x2 = 0.45	0.504	–
318.1 K, x2 = 0.456	–	13.04
318.1 K, x2 = 0.567	0.449	–
318.1 K, x2 = 0.69	0.373	–
318.1 K, x2 = 0.691	–	27.8
318.1 K, x2 = 0.844	–	49.9
318.1 K, x2 = 0.846	0.337	–
323 K, x2 = 0	–	1.52
323 K, x2 = 0.119	0.283	–
323 K, x2 = 0.19	0.43	–
323 K, x2 = 0.195	–	4.04
323 K, x2 = 0.271	0.5	–
323 K, x2 = 0.358	–	7.89
323 K, x2 = 0.359	0.558	–
323 K, x2 = 0.453	0.566	–
323 K, x2 = 0.563	0.508	–
323 K, x2 = 0.567	–	15.44
323 K, x2 = 0.69	0.424	–
323 K, x2 = 0.846	0.392	–
323 K, x2 = 0.848	–	40

CCCCO + CCCC[n+]1ccn(C)c1.N#C[S-]
101 kPa, x1 = 1
Conditions	viscosity [mPa·s]
328.15 K	1.25
348.15 K	0.846

CCCC[n+]1ccn(C)c1.[Cl-] + NCCO
viscosity [mPa·s], 100 kPa
Conditions	293 K	303 K	303.1 K	313.1 K	333.2 K
x2 = 0.5	–	–	95.3	57	24.9
x2 = 0.677	62.3	37.1	–	24.1	–
